Experimental data as given in patent publication US5474988A, “5-phenylpyrrolo-1,4-benzoxazine and 5-phenylpyrrolo-1,4-benzothiazine compounds, process and intermediates for their production and pharmaceutical compositions containing them” (Kali-Chemie Pharma GmbH, priority 1993, dated 1995).

Assays:
5-lipoxygenase = test: inhibition of 5-lipoxygenase activity in polymorphonuclear rat leucocytes (LTB4 formation); assay type: cell-based; conditions: 10^-5 mol/l; 22° C.
Text: 4. In vitro determination of 5-lipoxygenase inhibition. 4a. In vitro determination of inhibition of 5-lipoxygenase activity in polymorphonuclear rat leucocytes. Arachidonic acid contained in cell membranes is released after activiation of the polymorphonuclear leucocytes (=PMN). During the course of this, under the action of the enzyme 5-lipoxygenase (=5-LO) arachidonic acid metabolites are synthesized which can be converted to leucotriene B4 (=LTB4) by LTA4 hydrolase. LTB4 is a principal metabolite of the arachidonic acid metabolism taking place on activation of the enzyme 5-LO by the inflammatory stimulus in the cell membrane. In in vitro systems, this metabolite is secreted from PMNs. […] To accomplish this, the content of LTB4 in a culture medium of rat peritoneal PMNs was determined after stimulation by calcimycin (=calcium-ionophore A23187) such as described by […] et al., Can. J. Physiol. Pharmacol. 67 (1989), 17. A cell suspension containing peritoneal PMNs of male Sprague-Dawley rats (body weight 200 to 250 g) was obtained in a known manner as follows: 6 ml of a solution containing 27.9 g/l of sodium thioglycolate were injected i.p. into the animals in order to induce the PMN invasion due to this inflammatory stimulus. After 22 hours, the animals were sacrificed by means of lethal ether anaesthesia. 20 ml of a Hank's salt solution (=Hank's Balanced Salt Solution=HBSS), but without Ca^++ and Mg^++ ions and with 0.2% by weight of sodium citrate, were then injected into the abdominal cavity. The suspension of accumulated cells was removed from the abdominal cavity and the cells were separated by centrifugation (10 minutes at 400×g). The cells were purified by repeated centrifugation in the presence of Ficoll-Paque®, (=metrizoic acid preparation, […], manufacturer Pharmacia), then washed twice with HBSS containing Ca^++ and Mg^++ ions and resuspended in HBSS containing Ca^ ++ and Mg^++ ions and buffered with 10 mM HEPES (=hydroxyethylpiperazinoethanesulfonic acid). In order to carry out the tests, samples of 0.7 ml of the PMN suspension (=0.5×10^6 cells) in each case were incubated for 15 minutes at 22° C. in plastic tubes containing 10 μM of the test substance in dimethylformamide or, as a control experiment, only containing dimethylformamide. The LTB4 synthesis was initiated in the samples by addition of calcimycin (final concentration 5 μm), and the samples were incubated for 10 minutes at 22° C. Only solvent was added to blank control samples. After 10 minutes, the reaction was terminated by addition of 0.3 ml of cold methanol. The samples were kept for 1 hour at 4° C. and then centrifuged (5 minutes at 10,000×g). The supernatant liquid was investigated to determine its LTB4 content by means of reverse phase high-pressure liquid chromatography (=reverse phase HPLC). […] The LTB4 was identified by comparison with authentic standard solutions eluting at the same time and determined at a wavelength of 270 nm. The LTB4 contents are determined from comparison with calibrated standard solutions, and from this the inhibitory activity of the test substances was calculated in % inhibition of the LTB4 synthesis in comparison with the control samples containing no test substance.

[1] = tested on: P.A.F.-induced aggregation of blood platelets; test: anti-P.A.F. action in vitro (P.A.F.-induced platelet aggregation); assay type: cell-based; conditions: Oryctolagus cuniculus, 10^-5 mole/liter, read-out: Anti-P.A.F. activity in vitro, % inhibition of the P.A.F.-induced aggregation of blood platelets from rabbit blood
Text: 3. Determination of the anti-P.A.F. action in vitro.
P.A.F. (=Platelet Activating Factor=Platelet Aggregation Factor) is a phospholipid mediator which has a multiplicity of actions. The activation of blood platelet aggregation results in the induction of long-lasting bronchoconstrictions and hyperreactivity of the respiratory passages.
In this test, the effect of the test substances on platelet aggregation induced by addition of P.A.F. in a platelet suspension obtained from rabbit blood was investigated according to the method described by Mikashima et al. (Jap. J. Pharmacol. 44 (1987) 387-391).
A suspension of platelets obtained from rabbit blood was used which contains 4×10^9 platelets/ml in a modified Tyrode buffer solution (=Tyrode solution with the addition of 1.3 mM/l of CaCl2 and 2.5 g/l of gelatine) adjusted to pH 7.4. Tyrode solution is an aqueous solution containing, per liter, 136.9 mmole of NaCl, 2.68 mmole of KCl, 2.31 mmole of CaCl2, 1.0 mmole of MgCl2, 11.9 mmole of NaHCO3, 1.45 mmole of NaH2 PO4 and 5.55 mmole of glucose. The platelets were concentrated from 10 ml blood samples of three rabbits (New Zealand hybrids, body weight 3-4 kg) in each case. To accomplish this, the blood samples were treated with ethylenediaminetetraacetic acid and washed according to the method of Artley et al. (Brit. J. Haematol. 19 (1970), 7-17). A platelet-rich plasma was first separated by centrifugation (20 minutes at 400×g). The platelets were separated from the plasma by repeated centrifugation for 15 minutes at 1400×g.After the centrifugation, the blood platelets remaining in the sediment were resuspended in a Tyrode buffer solution (but without calcium). 0.4 mmole of lysine acetylsalicylate was then added, and the blood platelets were sedimented again after 15 minutes. The sediment was resuspended in the aforementioned modified Tyrode buffer solution, and the number of platelets in the suspension obtained was adjusted to the desired content.
A 40×10^-9 molar P.A.F. solution was employed as a reagent. This solution was prepared from a 1.8×10^-3 molar stock solution in chloroform. To do this, a 10 μl sample of the stock solution was evaporated to dryness and dissolved again in 180 μl of the modified Tyrode buffer solution, to which 0.25% of lipid-free bovine serum albumin had been added. 10^-5 molar working solutions were then prepared from this and stored frozen. Samples of these solutions were appropriately diluted for tests.
In order to carry out the test, 50 μl of the blood platelet suspension and 10 μl of a 40×10^-5 molar solution of the compound to be investigated were added to […] of the modified Tyrode buffer solution with stirring (1000 rpm) in an aggregation tube provided with a small magnetic stirrer. This corresponded to a final test substance concentration of 10^-5 mole/l. After a preincubation time of 90 seconds, 10 μl of the P.A.F. preparation were added. For 4-5 minutes, the aggregation occurring in the aggregation tube was measured by means of a computerized aggregometer.
The aggregation occurring in the test tubes containing only the platelet suspension is rated as 0%. The aggregation occurring in the test tubes containing platelet suspension and P.A.F. preparation, in which a P.A.F.-induced increase in platelet aggregation takes place, is rated as 100%. The aggregation still occurring after addition of the test substances is measured, and from this the inhibition of the P.A.F.-inducedincrease in aggregation which takes place is calculated in %.

SMILES	In vitro inhibitory activity on LTB4 formation in rat PMNs stimulated by calcium ionophore A23187 (5-lipoxygenase) [%]	inhibition at 10 µM [1] [%]
Cc1ccnc(N2CCN(CCC3Cn4c(-c5ccc(O)cc5)c(C)c5cccc(c54)O3)CC2)c1 (stereo not drawn) [Example 2, 2,3-Dihydro-5-(4-hydroxyphenyl)-6-methyl-2-[2-(4-(4-methylpyridin-2-yl)piperazin-1-yl)ethyl]pyrrolo[1,2,3-de]-1,4-benzoxazine]	89	97
COc1ccc(-c2c(C)c3cccc4c3n2CC(CCC(=O)N2CCN(c3cc(C)ccn3)CC2)O4)cc1 (stereo not drawn) [Example 6, 2,3-Dihydro-5-(4-methoxyphenyl)-6-methyl-2-[3-(4-(4-methylpyridin-2-yl)piperazin-1-yl)-3-oxopropyl]pyrrolo[1,2,3-de]-1,4-benzoxazine]		100
Cc1c(-c2ccc(O)cc2)n2c3c(cccc13)OC(CCCN1CCN(c3ccccn3)CC1)C2 (stereo not drawn) [Example 56]	76	
COc1ccc(-c2c(C)c3c(F)ccc4c3n2CC(CCN2CCN(c3cc(C)ccn3)CC2)O4)cc1 (stereo not drawn) [Example 51]		65
Cc1ccnc(N2CCN(CC3Cn4c(-c5ccc(O)cc5)c(C)c5cccc(c54)O3)CC2)c1 (stereo not drawn) [Example 14]	90	100
Cc1c(-c2ccc(O)cc2)n2c3c(cccc13)OC(CCN1CCN(c3ccc(F)cc3)CC1)C2 (stereo not drawn) [Example 24]	73	
Cc1cccnc1N1CCN(C(=O)CCC2Cn3c(-c4ccc(O)cc4)c(C)c4cccc(c43)O2)CC1 (stereo not drawn) [Example 37]	100	48
Cc1cccc(N2CCN(CCCC3Cn4c(-c5ccc(O)cc5)c(C)c5cccc(c54)O3)CC2)n1 (stereo not drawn) [Example 58]	54	
COc1ccc(-c2c(C)c3cccc4c3n2CC(CCN2CCN(c3cc(C)ccn3)CC2)O4)cc1 (stereo not drawn) [Example 1, 2,3-dihydro-5-(4-methoxyphenyl)-6-methyl-2-[2-(4-(4-methylpyridin-2-yl)piperazin-1-yl)ethyl]pyrrolo[1,2,3-de]-1,4-benzoxazine]		80
COc1ccc(-c2c(C)c3cccc4c3n2CC(CCN2CCN(c3cc(C)ccn3)CC2)O4)cc1O (stereo not drawn) [Example 52]	53	
Cc1ccc(N2CCN(CCCC3Cn4c(-c5ccc(O)cc5)c(C)c5cccc(c54)O3)CC2)nc1 (stereo not drawn) [Example 55]	63	
Cc1cccc(N2CCN(C(=O)CCC3Cn4c(-c5ccc(O)cc5)c(C)c5cccc(c54)O3)CC2)n1 (stereo not drawn) [Example 57]	85	
Cc1ccnc(N2CCN(CCC3Cn4c(-c5cc(C)c(O)c(C)c5)c(C)c5c(Cl)ccc(c54)O3)CC2)c1 (stereo not drawn) [Example 48]		69
COc1ccc2c3c1c(C)c(-c1ccc(O)cc1)n3CC(CCC(=O)N1CCN(c3cc(C)ccn3)CC1)O2 (stereo not drawn) [Example 68]	90	96
Cc1ccnc(N2CCN(CCC3Cn4c(-c5ccc(O)cc5)c(C)c5c(C)cc(C)c(c54)O3)CC2)c1 (stereo not drawn) [Example 70]	68	93
Cc1ccnc(N2CCN(CCCCC3Cn4c(-c5cc(C)c(O)c(C)c5)c(C)c5cccc(c54)S3)CC2)c1 (stereo not drawn) [Example 63]		80
